melting point [°C] | Structure (SMILES)
> 300 | COc1ccc(-c2cc(NC(N)=O)c(C(N)=O)s2)cc1 [Example 4, 3-[(Aminocarbonyl)amino]-5-(4-methoxyphenyl)-2-thiophenecarboxamide]
> 300 | NC(=O)Nc1cc(-c2ccccc2Cl)sc1C(N)=O [Example 7, 3-[(Aminocarbonyl)amino]5-(2-chlorophenyl)-2-thiophenecarboxamide]
180 | CN(C)CCOc1ccccc1-c1cc(NC(N)=O)c(C(N)=O)s1 [Example 9, 3-[(Aminocarbonyl)amino]-5-{2-[2-(dimethylamino)ethoxy]phenyl}-2-thiophenecarboxamide]
> 300 | CN(C)CCOc1ccc(-c2cc(NC(N)=O)c(C(N)=O)s2)cc1 [Example 10, 3-[(Aminocarbonyl)amino]-5-{4-[2-(dimethylamino)ethoxy]phenyl}-2-thiophenecarboxamide]

— patent US7358376B2, “Substituted Thiophene compounds” (AstraZeneca AB, priority 2000, dated 2008)
